Measured values reported in article PMC8839448, “Novel Pyridothienopyrimidine Derivatives: Design, Synthesis and Biological Evaluation as Antimicrobial and Anticancer Agents” (Molecules, 2022).
≈ marks a conversion by molar mass, not a printed value.

Legend:
[1] = test system: Staphylococcus aureus 25923; assay: In vitro antibacterial activity, MIC by broth dilution; format: cell-based; settings: Gram +ve bacteria, read-out: MIC S. aureus
[2] = test system: Bacillus subtilis 6633; assay: as above; format: cell-based; settings: Gram +ve bacteria, read-out: MIC B. subtilis
[3] = test system: Bacillus cereus 33018; assay: as above; format: cell-based; settings: Gram +ve bacteria, read-out: MIC B. cereus
[4] = test system: Escherichia coli 8739; assay: as above; format: cell-based; settings: Gram −ve bacteria
[5] = test system: Salmonella typhimurium 14028; assay: as above; format: cell-based; settings: Salmonella enterica, Gram −ve bacteria, read-out: MIC S. typhimurium
[6] = test system: Candida albicans 10231; assay: In vitro antifungal activity, MIC by broth dilution; format: cell-based; settings: yeast, read-out: MIC C. albicans
[7] = test system: Candida tropicals 750; assay: as above; format: cell-based; settings: yeast, read-out: MIC C. tropicals
[8] = test system: Saccharomycese cerevisiae; assay: as above; format: cell-based; settings: Saccharomyces cerevisiae, yeast, read-out: MIC S. cerevisiae
[9] = test system: Aspergillus flavus; assay: as above; format: cell-based; settings: fungi
[10] = test system: Aspergillus niger EM77 (KF774181); assay: as above; format: cell-based; settings: fungi
[11] = test system: hepatocellular carcinoma (HepG2) cells; assay: Cytotoxicity, MTT assay; format: cell-based; settings: Homo sapiens, read-out: Cytotoxic activity IC50 HepG2
[12] = test system: breast cancer (MCF-7) cells; assay: Cytotoxicity, MTT assay; format: cell-based, human; settings: Homo sapiens, MCF7, MCF7 cells, read-out: Cytotoxic activity IC50 MCF7
[13] = test system: five bacterial strains; assay: Antibacterial MIC, range over the panel; format: cell-based
[14] = test system: all the tested yeasts and fungi strains; assay: Antifungal MIC, range over the panel; format: cell-based
[15] = Cytotoxicity against normal cells, MTT assay; settings: human, WISH normal cells
Text: The cytotoxicity was estimated as IC50 in μM for the tested compounds and the reference drug doxorubicin, and are listed in Table 3.

SMILES	MIC [1] [µg/mL]	MIC [2] [µg/mL]	MIC [3] [µg/mL]	MIC [4] [µg/mL]	MIC [5] [µg/mL]	MIC [6] [µg/mL]	MIC [7] [µg/mL]	MIC [8] [µg/mL]	MIC [9] [µg/mL]	MIC [10] [µg/mL]	IC50 [11] [µM]	IC50 [12] [µM]	melting point [°C]	MIC range against the tested bacterial strains [13] [µg/mL]	MIC range against the tested yeasts and fungi strains [14] [µg/mL]	IC50 [15] [µM]
Cc1ccc(-c2cc(-c3ccccc3)nc3sc4c(=O)[nH]c(CN5CCN(C)CC5)nc4c23)cc1 [Compound 5b, 2-((4-Methylpiperazin-1-yl)methyl)-7-phenyl-9-(p-tolyl)pyrido[3′,2′:4,5]thieno[3,2-d]pyrimidin-4(3H)-one]	8 (≈ 16.6 µM)	8 (≈ 16.6 µM)	16 (≈ 33.2 µM)	32 (≈ 66.4 µM)	32 (≈ 66.4 µM)	64 (≈ 133 µM)	16 (≈ 33.2 µM)	16 (≈ 33.2 µM)	32 (≈ 66.4 µM)	64 (≈ 133 µM)	10.2 ± 0.29	21.1 ± 1.16	260 to 261	–	–	–
Cc1cc(C)c2c3c(sc2n1)C(SCC1CO1)=NC1(CCCCC1)N3 (stereo not shown) [Compound 9a, 7′,9′-Dimethyl-4′-((oxiran-2-ylmethyl)sulfanyl)-1′H-spiro[cyclohexane-1,2′-pyrido[3′,2′:4,5]thieno[3,2-d]pyrimidine]]	16 (≈ 42.8 µM)	32 (≈ 85.7 µM)	8 (≈ 21.4 µM)	32 (≈ 85.7 µM)	16 (≈ 42.8 µM)	16 (≈ 42.8 µM)	32 (≈ 85.7 µM)	32 (≈ 85.7 µM)	16 (≈ 42.8 µM)	64 (≈ 171 µM)	4.88 ± 0.65	23.6 ± 1.24	155	8 to 32	–	–
Cc1cc(C)c2c3c(sc2n1)C(=S)NC1(CCCC1)N3 [Compound 7a, 7′,9′-Dimethyl-1′H-spiro[cyclopentane-1,2′-pyrido[3′,2′:4,5]thieno[3,2-d]pyrimidine]-4′(3′H)-thione]	4 (≈ 13.2 µM)	> 128	8 (≈ 26.4 µM)	8 (≈ 26.4 µM)	16 (≈ 52.7 µM)	16 (≈ 52.7 µM)	16 (≈ 52.7 µM)	8 (≈ 26.4 µM)	16 (≈ 52.7 µM)	16 (≈ 52.7 µM)	26.1 ± 1.89	28.1 ± 0.92	–	–	4 to 16	–
Cc1ccc(-c2cc(-c3ccccc3)nc3sc4c(c23)NC2(CCCCC2)NC4=O)cc1 [Compound 6d, 7′-Phenyl-9′-(p-tolyl)-1′H-spiro[cyclohexane-1,2′-pyrido[3′,2′:4,5]thieno[3,2-d]pyrimidin]-4′(3′H)-one]	8 (≈ 18.2 µM)	32 (≈ 72.8 µM)	8 (≈ 18.2 µM)	32 (≈ 72.8 µM)	32 (≈ 72.8 µM)	64 (≈ 146 µM)	64 (≈ 146 µM)	32 (≈ 72.8 µM)	32 (≈ 72.8 µM)	16 (≈ 36.4 µM)	4.45 ± 0.22	21.7 ± 0.7	263	8 to 32	–	–
Cc1ccc(-c2cc(-c3ccccc3)nc3sc4c(=O)[nH]c(CCl)nc4c23)cc1 [Compound 4b, 2-(Chloromethyl)-7-phenyl-9-(p-tolyl)pyrido[3′,2′:4,5]thieno[3,2-d]pyrimidin-4(3H)-one]	8 (≈ 19.1 µM)	128 (≈ 306 µM)	16 (≈ 38.3 µM)	128 (≈ 306 µM)	128 (≈ 306 µM)	8 (≈ 19.1 µM)	16 (≈ 38.3 µM)	8 (≈ 19.1 µM)	16 (≈ 38.3 µM)	16 (≈ 38.3 µM)	36.5 ± 1.82	43.3 ± 2.28	310	–	4 to 16	–
Cc1cc(C)c2c3c(sc2n1)C(=S)NC1(CCCCC1)N3 [Compound 7c, 7′,9′-Dimethyl-1′H-spiro[cyclohexane-1,2′-pyrido[3′,2′:4,5]thieno[3,2-d]pyrimidine]-4′(3′H)-thione]	32 (≈ 101 µM)	32 (≈ 101 µM)	8 (≈ 25.2 µM)	32 (≈ 101 µM)	32 (≈ 101 µM)	16 (≈ 50.4 µM)	8 (≈ 25.2 µM)	8 (≈ 25.2 µM)	4 (≈ 12.6 µM)	16 (≈ 50.4 µM)	10.3 ± 0.31	20.9 ± 0.93	201	–	4 to 16	–
COc1cccc2c1C(=O)c1c(O)c3c(c(O)c1C2=O)C[C@@](O)(C(=O)CO)C[C@@H]3O[C@H]1C[C@H](N)[C@H](O)[C@H](C)O1 [Doxorubicin, doxorubicin, reference compound]	–	–	–	–	–	–	–	–	–	–	2.85 ± 0.21	3.58 ± 0.33	–	–	–	432 ± 19.3
